Legend:
THP-1 = test: 8-day growth inhibition; type: cell-based; details: AML, THP-1, 8-day assay
MDA-MB-157 = test: 8-day growth inhibition; type: cell-based; details: Breast, MDA-MB-157, 8-day assay
MDA-MB-468 = test: 8-day growth inhibition; type: cell-based; details: Breast, MDA-MB-468, 8-day assay
C3A = test: 8-day growth inhibition; type: cell-based; details: HCC, 8-day assay
NCI-H1694 = test: 8-day growth inhibition; type: cell-based; details: SCLC, NCI-H1694, 8-day assay
MV-4-11 = test: 8-day growth inhibition; type: cell-based; details: AML, MV-4-11, 8-day assay
HT = test: 8-day growth inhibition; type: cell-based; details: DLBCL (GC), 8-day assay
U937 = test: 8-day growth inhibition; type: cell-based; details: Histiocytic lymphoma - monocytic, U937, 8-day assay
[1] = Plasma and urine pharmacokinetics, dose-escalation cohorts; type: in vivo, human; details: for AUC(0-inf) / AUC(0–24) / Ae, amount of drug dose excreted in urine / CLR / Cav,ss / Cmax / fe, fraction of dose excreted in urine / t1/2 / AUC(0-t): mean (SD); for tmax: median (min, max)
Protocol: Blood samples were also collected immediately before the dose on day 7 of cycle 1, days 1 and 15 of cycle 2 and on day 1 of cycle 3, and beyond. All urine produced during the time intervals pre-dose, 0–2 h, 2–4 h, 4–10 h and 10–24 h following the single dose on day –2, and after multiple doses on cycle 1, day 15, was collected.

sVEGFR2 = test: Serum biomarker analysis, sVEGFR2; type: in vivo, human; details: data not shown
Protocol: Two pre-dose, multiple post-dose and off-treatment time points were included. Serum samples were tested for concentrations of soluble vascular endothelial growth factor receptor (VEGFR)2, VEGFR3 and soluble interleukin-2 receptor α (sIL-2Rα/CD25), using the bead-based Human Soluble Cytokine Receptor Panel assay kit. The two baseline samples (days −3 and −2 prior to dosing) were averaged, and the mean was used to calculate percent change at each of the post-dosing time points.

HEC-1B = test: 8-day growth inhibition; type: cell-based; details: Endometrial, 8-day assay
HCT-15 = test: 8-day growth inhibition; type: cell-based; details: Colon, HCT-15, 8-day assay
PARP = PARP inhibition by PAR levels in PBMCs (ELISA); type: in vivo, human
Protocol: Inhibition of PARP activity was measured by quantifying PAR in PBMCs using an enzyme-linked immunosorbent assay (HT PARP in vivo Pharmacodynamic Assay II kit). PAR levels in PBMCs and the percentage change from baseline were summarised by dose and nominal sampling time point.

[2] = 50 mg once daily, cycle 1 day 15, steady state
[3] = 100 mg once daily, cycle 1 day 15, steady state
[4] = 200 mg once daily, cycle 1 day 15, steady state
[5] = 400 mg once daily, cycle 1 day 15, steady state
[6] = 600 mg once daily, cycle 1 day 15, steady state
[7] = 800 mg once daily, cycle 1 day 15, steady state

## O=c1[nH]nc2c3c(cccc13)N=C(CN1Cc3ccccc3C1)N2 [E7449]
THP-1
  IC50: 5.4 µM
MDA-MB-157
  IC50: 6.8 µM
MDA-MB-468
  IC50: 2.5 µM
C3A
  IC50: 2.54 µM
NCI-H1694
  IC50: 2.47 µM
MV-4-11
  IC50: 0.95 µM
HT
  IC50: 0.66 µM
U937
  IC50: 2.7 µM
[1]; [2]
  AUC(0-inf): 634 (n = 1) ng·h/mL
  AUC(0–24): 714 (193) ng·h/mL
  Ae, amount of drug dose excreted in urine: 0.19 (0.00) (n = 2) mg
  CLR: 0.3 (0.01) (n = 2) L/h
  Cav,ss: 29.7 (8.03) ng/mL
  Cmax: 264 (227) ng/mL
  fe, fraction of dose excreted in urine: 0.39 (0.01) (n = 2) %
  t1/2: 9.04 (n = 1) h
  tmax: 1.00 (0.5, 2.00) h
[1]; 50 mg, day –2 single dose
  AUC(0-inf): 770 (n = 1) ng·h/mL
  AUC(0-t): 603 (213) ng·h/mL
  AUC(0–24): 768 (n = 1) ng·h/mL
  Ae, amount of drug dose excreted in urine: 0.11 (0.06) (n = 2) mg
  Cmax: 265 (99.8) ng/mL
  fe, fraction of dose excreted in urine: 0.22 (0.13) (n = 2) %
  t1/2: 3.42 (n = 1) h
  tmax: 2.00 (0.58, 2.03) h
[1]; [3]
  AUC(0-inf): 1150 (266) ng·h/mL
  AUC(0–24): 1100 (244) ng·h/mL
  Ae, amount of drug dose excreted in urine: 0.70 (n = 1) mg
  CLR: 0.5 (n = 1) L/h
  Cav,ss: 45.8 (10.2) ng/mL
  Cmax: 404 (175) ng/mL
  fe, fraction of dose excreted in urine: 0.70 (n = 1) %
  t1/2: 8.92 (2.50) h
  tmax: 3.00 (1.00, 4.00) h
[1]; 100 mg, day –2 single dose
  AUC(0-inf): 895 (99.8) ng·h/mL
  AUC(0-t): 879 (104) ng·h/mL
  AUC(0–24): 879 (104) ng·h/mL
  Ae, amount of drug dose excreted in urine: 0.47 (n = 1) mg
  CLR: 0.5 (n = 1) L/h
  Cmax: 284 (112) ng/mL
  fe, fraction of dose excreted in urine: 0.47 (n = 1) %
  t1/2: 6.35 (3.36) h
  tmax: 2.05 (1.08, 3.00) h
[1]; [4]
  AUC(0-inf): 2670 (1510) (n = 2) ng·h/mL
  AUC(0–24): 3690 (2230) ng·h/mL
  Ae, amount of drug dose excreted in urine: 1.11 (0.33) mg
  CLR: 0.5 (0.4) L/h
  Cav,ss: 154 (93.1) ng/mL
  Cmax: 1430 (1080) ng/mL
  fe, fraction of dose excreted in urine: 0.55 (0.17) %
  t1/2: 9.19 (4.83) (n = 2) h
  tmax: 1.00 (1.00, 2.00) h
[1]; 200 mg, day –2 single dose
  AUC(0-inf): 3320 (1790) (n = 2) ng·h/mL
  AUC(0-t): 3780 (1180) ng·h/mL
  AUC(0–24): 3670 (1170) ng·h/mL
  Ae, amount of drug dose excreted in urine: 0.70 (0.60) (n = 3) mg
  CLR: 0.2 (0.15) (n = 3) L/h
  Cmax: 996 (676) ng/mL
  fe, fraction of dose excreted in urine: 0.34 (0.29) (n = 3) %
  t1/2: 7.08 (1.16) (n = 2) h
  tmax: 3.10 (1.03, 4.18) h
[1]; [5]
  AUC(0-inf): 3240 (820) (n = 2) ng·h/mL
  AUC(0–24): 4730 (2730) ng·h/mL
  Ae, amount of drug dose excreted in urine: 2.05 (1.09) mg
  CLR: 0.4 (0.14) L/h
  Cav,ss: 197 (114) ng/mL
  Cmax: 1130 (1030) ng/mL
  fe, fraction of dose excreted in urine: 0.51 (0.27) %
  t1/2: 4.16 (1.72) (n = 2) h
  tmax: 4.00 (0.5, 4.00) h
[1]; 400 mg, day –2 single dose
  AUC(0-inf): 4800 (3000) (n = 3) ng·h/mL
  AUC(0-t): 4800 (2450) ng·h/mL
  AUC(0–24): 4690 (2400) ng·h/mL
  Ae, amount of drug dose excreted in urine: 2.77 (1.82) mg
  CLR: 0.6 (0.34) L/h
  Cmax: 999 (619) ng/mL
  fe, fraction of dose excreted in urine: 0.69 (0.45) %
  t1/2: 8.62 (0.54) (n = 3) h
  tmax: 2.04 (1.03, 4.05) h
[1]; [6]
  AUC(0-inf): 9660 (4550) (n = 4) ng·h/mL
  AUC(0–24): 7900 (4730) ng·h/mL
  Ae, amount of drug dose excreted in urine: 2.25 (1.28) mg
  CLR: 0.3 (0.12) L/h
  Cav,ss: 329 (198) ng/mL
  Cmax: 2230 (1570) ng/mL
  fe, fraction of dose excreted in urine: 0.38 (0.21) %
  t1/2: 5.05 (1.76) (n = 4) h
  tmax: 1.14 (0.50, 4.05) h
[1]; 600 mg, day –2 single dose
  AUC(0-inf): 10,700 (5040) (n = 4) ng·h/mL
  AUC(0-t): 8120 (4990) ng·h/mL
  AUC(0–24): 7930 (4990) ng·h/mL
  Ae, amount of drug dose excreted in urine: 2.90 (0.51) mg
  CLR: 5.0 (13.0) L/h
  Cmax: 2250 (1330) ng/mL
  fe, fraction of dose excreted in urine: 0.48 (0.09) %
  t1/2: 7.17 (2.98) (n = 4) h
  tmax: 2.12 (0.50, 24.3) h
[1]; [7]
  AUC(0-inf): 12,000 (5910) (n = 4) ng·h/mL
  AUC(0–24): 12,400 (5230) ng·h/mL
  Ae, amount of drug dose excreted in urine: 4.70 (2.91) mg
  CLR: 0.5 (0.34) L/h
  Cav,ss: 516 (218) ng/mL
  Cmax: 4120 (2160) ng/mL
  fe, fraction of dose excreted in urine: 0.68 (0.47) %
  t1/2: 6.44 (1.56) (n = 4) h
  tmax: 0.50 (0.0, 1.97) h
[1]; 800 mg, day –2 single dose
  AUC(0-inf): 12,900 (3350) (n = 4) ng·h/mL
  AUC(0-t): 11,500 (3370) ng·h/mL
  AUC(0–24): 11,300 (3230) ng·h/mL
  Ae, amount of drug dose excreted in urine: 4.00 (1.73) mg
  CLR: 0.4 (0.12) L/h
  Cmax: 4430 (2470) ng/mL
  fe, fraction of dose excreted in urine: 0.50 (0.22) %
  t1/2: 9.45 (2.42) (n = 4) h
  tmax: 0.79 (0.50, 2.00) h
[1]; across doses
  Drug dose excreted unchanged in urine: Less than 1.5%
  Elimination half-life, t1/2: approximately 8 h
sVEGFR2
  Change in serum concentration of sVEGFR2 from baseline: No significant changes
HEC-1B
  IC50: 7.27 µM
HCT-15
  IC50: 2.2 µM
PARP; 600 mg, fasted cohort
  Time of maximal decrease in PAR levels after administration: 2 to 4 h
PARP; 600 mg, fed cohort
  Time of maximal decrease in PAR levels post treatment: 4 to 8 h
PARP; 24-h post-dose time points (cycle 1, days 1, 7, 8 and 16)
  Decrease in PAR levels: ≥ 70%
PARP; MTD 600 mg once daily, steady state, PAR in PBMCs
  Population mean PARP inhibition: approximately 90%
PARP; food-effect cohorts, 600 mg
  Inhibition in PAR levels from baseline: up to 90%

From publication PMC7434893 (British Journal of Cancer, 2020)
